Laboratory results published in patent US11026946B2, “Pharmacologically active alicyclic-substituted pyrazolo[1,5-a]pyrimidine derivatives” (RICHTER GEDEON NYRT., priority 2017, dated 2021).
pEC50: −log10 of the molar value.

Experiments:
GABAB receptor = molecular target: T1, GABAB receptor (Rattus norvegicus, UniProt O88871+Q9Z0U4); assay: In vitro [35S]GTPγS binding assay in rat cortical membranes; assay type: biochemical; conditions: PAM EC50, [35S]GTPγS binding, read-out: In vitro PAM potency
T1 construct: from tissue; host or cells: rat brain cortex membranes
T1 sequence (O88871 41-940): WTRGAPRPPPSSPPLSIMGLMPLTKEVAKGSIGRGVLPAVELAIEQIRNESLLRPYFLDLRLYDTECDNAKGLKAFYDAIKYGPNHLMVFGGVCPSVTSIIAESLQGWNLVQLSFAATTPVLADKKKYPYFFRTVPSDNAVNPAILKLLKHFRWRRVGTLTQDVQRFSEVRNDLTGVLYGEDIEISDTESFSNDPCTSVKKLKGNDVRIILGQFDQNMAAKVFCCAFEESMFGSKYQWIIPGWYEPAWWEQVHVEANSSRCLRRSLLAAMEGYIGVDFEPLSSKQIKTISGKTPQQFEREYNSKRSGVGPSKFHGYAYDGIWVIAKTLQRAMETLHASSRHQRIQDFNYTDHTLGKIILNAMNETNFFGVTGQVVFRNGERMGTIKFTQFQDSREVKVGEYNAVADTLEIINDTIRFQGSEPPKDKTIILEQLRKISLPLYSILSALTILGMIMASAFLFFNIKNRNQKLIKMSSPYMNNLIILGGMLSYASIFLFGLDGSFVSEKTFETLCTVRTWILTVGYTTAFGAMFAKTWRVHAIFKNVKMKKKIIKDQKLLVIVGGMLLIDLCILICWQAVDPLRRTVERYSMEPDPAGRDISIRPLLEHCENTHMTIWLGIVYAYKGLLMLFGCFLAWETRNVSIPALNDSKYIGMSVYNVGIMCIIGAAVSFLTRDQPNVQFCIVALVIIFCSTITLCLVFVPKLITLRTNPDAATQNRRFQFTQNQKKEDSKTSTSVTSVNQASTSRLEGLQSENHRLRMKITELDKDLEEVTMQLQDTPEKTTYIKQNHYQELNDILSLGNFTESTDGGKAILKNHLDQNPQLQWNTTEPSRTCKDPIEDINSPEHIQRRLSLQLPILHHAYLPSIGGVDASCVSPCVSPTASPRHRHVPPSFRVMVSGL
T1 sequence (Q9Z0U4 17-960 limits assumed): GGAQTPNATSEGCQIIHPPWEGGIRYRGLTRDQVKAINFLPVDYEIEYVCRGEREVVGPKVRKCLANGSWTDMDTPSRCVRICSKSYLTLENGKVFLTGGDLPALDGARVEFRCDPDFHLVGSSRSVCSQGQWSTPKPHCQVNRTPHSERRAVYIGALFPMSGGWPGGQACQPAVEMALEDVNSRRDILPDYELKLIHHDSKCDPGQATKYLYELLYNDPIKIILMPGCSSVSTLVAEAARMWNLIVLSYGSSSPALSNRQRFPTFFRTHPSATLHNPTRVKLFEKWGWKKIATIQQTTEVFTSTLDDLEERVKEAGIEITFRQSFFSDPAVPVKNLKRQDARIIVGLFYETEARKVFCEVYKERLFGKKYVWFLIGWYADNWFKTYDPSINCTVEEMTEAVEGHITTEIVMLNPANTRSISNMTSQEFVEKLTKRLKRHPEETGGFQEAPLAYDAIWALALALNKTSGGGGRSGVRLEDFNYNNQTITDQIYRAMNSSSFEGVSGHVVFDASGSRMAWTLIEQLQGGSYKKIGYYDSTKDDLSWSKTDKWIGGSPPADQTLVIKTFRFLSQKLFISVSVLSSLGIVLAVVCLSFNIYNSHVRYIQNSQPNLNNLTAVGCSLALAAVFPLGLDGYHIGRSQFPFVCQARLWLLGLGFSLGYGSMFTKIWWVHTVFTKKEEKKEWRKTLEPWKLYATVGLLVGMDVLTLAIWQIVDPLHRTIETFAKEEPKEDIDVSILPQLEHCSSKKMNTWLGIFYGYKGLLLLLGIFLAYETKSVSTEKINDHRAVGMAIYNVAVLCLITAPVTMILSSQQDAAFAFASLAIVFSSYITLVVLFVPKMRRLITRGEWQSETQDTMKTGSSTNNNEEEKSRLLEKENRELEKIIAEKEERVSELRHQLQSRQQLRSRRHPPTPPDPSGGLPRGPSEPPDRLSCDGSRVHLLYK
Procedure: In Vitro [^35S]GTPγS Binding Assay in Rat Cortical Membranes
Cortices of freshly harvested rat brains were dissected on an ice-cold surface and homogenized by a glass Dounce homogeniser immediately in ice-cold buffer containing 50 mM Tris, 5 mM MgCl2 and 1 mM EDTA (pH=7.6). Tissue homogenates were centrifuged at 40000 g for 15 min at 4° C. Membrane pellets were resuspended in the same buffer and membranes were incubated for 10 min at 30° C. in a shaking water bath to eliminate endogenous GABA. Homogenates were centrifuged again under the same conditions. The final pellets were resuspended in ice-cold buffer (pH=7.6) containing 50 mM Tris, 100 mM NaCl, 7 mM MgCl2, 1 mM EDTA and 1 mM dithiotreithol (DTT) to yield a concentration of 20 mg tissue weight/ml and frozen at −70° C. until use. The assay was done in a buffer containing 50 mM Tris (pH=7.4), 100 mM NaCl, 7 mM MgCl2, 1 mM EDTA and 1 mM DTT. Each assay tube contained 150 μL GDP (in a final concentration of 50 μM), 100 μL ligand and 125 μL of the membrane suspension (250 μg tissue/tube). The assay tubes were preincubated for 10 min at 30° C. to assure equilibrium. Nonspecific binding was determined in the presence of 10 μM GTPγS: basal binding was determined in the presence of buffer only. After addition of 50 pM [^35S]GTPγS in a volume of 25 μL to the tubes, membranes were incubated for an additional 60 min at 30° C. The assay was terminated by rapid filtration through Packard UniFilter GF/B using a Packard harvester and washed four times with 1 ml ice-cold buffer. After drying the filters at 40° C. for 1 h, 40 μL Microscint (Packard) was added to the filters and radioactivity of the filters was determined by a TopCount NXT (PerkinElmer, Waltham, Mass.: Alper and Nelson, Eur. J. Pharmacol. 1998, 343, 303-312; Rinken et al, Biochem. Pharmacol. 1999, 57, 155-162). Data thus gathered were used to determine PAM EC50 values for each compound as primary in vitro activity end point.

adult rats = assay: Foot shock-induced ultrasonic vocalization (USV) in adult rats; assay type: in vivo, rat; conditions: 1 mg/kg per os, 1 h before shocking, male Wistar rats, versus vehicle
Procedure: Foot Shock-Induced Ultrasonic Vocalization (USV) in Adult Rats
(§1) Under stressful conditions, adult rats emit 22 kHz ultrasounds that can be reduced by various pharmacological treatments (De Vry et al, Eur. J. Pharmacol. 1993, 249, 331-339; Sanchez, Eur. J. Pharmacol. 2003, 463, 133-143). […] Therefore, a foot shock-induced vocalization paradigm in adult rats was used to assess efficacy of centrally acting GABAB receptor ligands. Behavioral measurements were carried out on male Wistar rats (200-250 g, Toxicoop, Hungary). Rats were housed in groups of four in plastic cages with a wire grid top in a temperature and light-controlled laboratory animal care unit (22±2° C., 12-h light/dark cycle, lights on at 6:00 AM) with ad libitum access to commercial pellet rat food and tap water. Investigations were approved by the Local Ethical Committee of Gedeon Richter Plc. and were carried out in strict compliance with the European Directive 2010/63/EU regarding the care and use of laboratory animals for experimental procedures and all efforts were made to minimize the number of animals as well as their suffering. In order to evoke emission of ultrasounds, animals were footshocked after a habituation period of 30 s (6 shocks, 1 s, 0.8 mA each, inter-shock interval 10 s) in a sound attenuated shocking chamber (Experimetria, 40×40×80 cm). Investigational compounds were administered at the dose of 1 mg/kg in a solid dispersion formulation in distilled water 1 h before shocking per os. Vocalizations were measured right after the last footshock for 10 min with a Metris Sonotrack system and the total time of vocalizations was registered. Vocalization of parallel vehicle treated animals was considered as control value and inhibition percent was calculated for each compound. At approximately 75 min after treatment and behavioral measurements, blood and brain samples were harvested in order to determine exposures associated with in vivo activity.

[1] = Plasma and brain levels after the USV assay; assay type: in vivo, rat; conditions: 1 mg/kg per os, approximately 75 min after treatment; for brain exposure at 1 mg/kg: rat brain; for plasma exposure at 1 mg/kg: rat plasma
Procedure: as §1
In Table 2 compounds of this invention measured in the USV assay are listed. In Table 3 plasma and brain levels of compounds of this invention are listed.

Structure (SMILES) | pEC50 (GABAB receptor) | USV inhibition at 1 mg/kg (%) (adult rats) | brain exposure at 1 mg/kg [1] [ng/g] | plasma exposure at 1 mg/kg [1] [ng/mL]
CCCC1(C(=O)O)CCCN(c2c(C(C)C)c(C)nc3cc([C@H]4CC[C@H](C(F)(F)F)CC4)nn23)C1 (single isomer, unassigned) [Example 4] | 8.00 to 9.00 | – | – | –
CCCC1(C(=O)O)CCCN(c2c(C(C)C)c(C)nc3cc([C@H]4CC[C@H](C(F)(F)F)CC4)nn23)C1 (single isomer, unassigned) [Example 5] | 8.00 to 9.00 | – | – | –
Cc1nc2cc([C@H]3CC[C@H](C(F)(F)F)CC3)nn2c(N2CCCC(CF)(C(=O)O)C2)c1C(C)C (single isomer, unassigned) [Example 6] | 8.00 to 9.00 | – | – | –
Cc1nc2cc([C@H]3CC[C@H](C(F)(F)F)CC3)nn2c(N2CCCC(CF)(C(=O)O)C2)c1C(C)C (single isomer, unassigned) [Example 7] | > 9.00 | – | – | –
CC[C@]1(C(=O)O)CCCN(c2c(C(C)C)c(C)nc3cc([C@H]4CC[C@H](C(F)(F)F)CC4)nn23)C1 (single isomer, unassigned) [Example 12] | 8.00 to 9.00 | 59 | 62 | 121
CC[C@@]1(C(=O)O)CCCN(c2c(C(C)C)c(C)nc3cc([C@H]4CC[C@H](C(F)(F)F)CC4)nn23)C1 (single isomer, unassigned) [Example 13] | > 9.00 | 97 | 31 | 124
Cc1nc2c(F)c([C@H]3CC[C@H](C(F)(F)F)CC3)nn2c(N2CCC[C@](C)(C(=O)O)C2)c1C(C)C (single isomer, unassigned) [Example 15] | 8.00 to 9.00 | 89 | 53 | 170
Cc1nc2c(F)c([C@H]3CC[C@H](C(F)(F)F)CC3)nn2c(N2CCC[C@@](C)(C(=O)O)C2)c1C(C)C (single isomer, unassigned) [Example 16] | > 9.00 | 100 | 36 | 131
CC[C@]1(C(=O)O)CCCN(c2c(C(C)C)c(C)nc3c(F)c([C@H]4CC[C@H](C(F)(F)F)CC4)nn23)C1 (single isomer, unassigned) [Example 17] | 8.00 to 9.00 | 79 | 74 | 135
CC[C@@]1(C(=O)O)CCCN(c2c(C(C)C)c(C)nc3c(F)c([C@H]4CC[C@H](C(F)(F)F)CC4)nn23)C1 (single isomer, unassigned) [Example 18] | > 9.00 | 75 | 30 | 175
COc1c(C)nc2cc([C@H]3CC[C@H](C(F)(F)F)CC3)nn2c1N1CCC[C@](C)(C(=O)O)C1 (single isomer, unassigned) [Example 19] | 7.00 to 8.00 | – | – | –
COc1c(C)nc2cc([C@H]3CC[C@H](C(F)(F)F)CC3)nn2c1N1CCC[C@@](C)(C(=O)O)C1 (single isomer, unassigned) [Example 20] | 6.00 to 7.00 | – | – | –
COc1c(C)nc2c(F)c([C@H]3CC[C@H](C(F)(F)F)CC3)nn2c1N1CCC[C@](C)(C(=O)O)C1 (single isomer, unassigned) [Example 23] | 8.00 to 9.00 | – | – | –
COc1c(C)nc2c(F)c([C@H]3CC[C@H](C(F)(F)F)CC3)nn2c1N1CCC[C@@](C)(C(=O)O)C1 (single isomer, unassigned) [Example 24] | 7.00 to 8.00 | – | – | –
CC[C@]1(C(=O)O)CCCN(c2c(OC)c(C)nc3c(F)c([C@H]4CC[C@H](C(F)(F)F)CC4)nn23)C1 (single isomer, unassigned) [Example 25] | 7.00 to 8.00 | – | – | –
CC[C@@]1(C(=O)O)CCCN(c2c(OC)c(C)nc3c(F)c([C@H]4CC[C@H](C(F)(F)F)CC4)nn23)C1 (single isomer, unassigned) [Example 26] | 7.00 to 8.00 | – | – | –
Cc1nc2cc(C3CCC(F)(F)CC3)nn2c(N2CCC[C@@](C)(C(=O)O)C2)c1C(C)C (single isomer, unassigned) [Example 30] | 8.00 to 9.00 | – | – | –

Structure (SMILES) | pEC50 (GABAB receptor) | USV inhibition at 1 mg/kg (%) (adult rats) | brain exposure at 1 mg/kg [1] [ng/g] | plasma exposure at 1 mg/kg [1] [ng/mL]
CC[C@@]1(C(=O)O)CCCN(c2c(C(C)C)c(C)nc3cc(C4CCC(F)(F)CC4)nn23)C1 (single isomer, unassigned) [Example 32] | 7.00 to 8.00 | – | – | –
Cc1nc2cc([C@H]3CC[C@H](C(F)(F)F)CC3)nn2c(N2CCC[C@H](C(=O)O)C2)c1C(C)C [Example 1, (3S)-1-[5-Methyl-6-(propan-2-yl)-2-[trans-4-(trifluoromethyl)cyclohexyl]pyrazolo[1,5-a]pyrimidin-7-yl]piperidine-3-carboxylic Acid] | 8.00 to 9.00 | – | – | –
Cc1nc2cc([C@H]3CC[C@H](C(F)(F)F)CC3)nn2c(N2CCC[C@](C(=O)O)(C(C)C)C2)c1C(C)C [Example 2, (3S)-1-[5-Methyl-6-(propan-2-yl)-2-[trans-4-(trifluoromethyl)cyclohexyl]-pyrazolo[1,5-a]pyrimidin-7-yl]-3-(propan-2-yl)piperidine-3-carboxylic Acid] | 8.00 to 9.00 | 85 | 74 | 188
Cc1nc2cc([C@H]3CC[C@H](C(F)(F)F)CC3)nn2c(N2CCC[C@@H](C(=O)O)C2)c1C(C)C [Example 10] | 8.00 to 9.00 | – | – | –
Cc1nc2cc([C@H]3CC[C@H](C(F)(F)F)CC3)nn2c(N2CCC[C@@](C(=O)O)(C(C)C)C2)c1C(C)C [Example 14] | 8.00 to 9.00 | – | – | –
CC[C@]1(C(=O)O)CCCN(c2c(OC)c(C)nc3cc([C@H]4CC[C@H](C(F)(F)F)CC4)nn23)C1 [Example 21] | 7.00 to 8.00 | – | – | –
CC[C@@]1(C(=O)O)CCCN(c2c(OC)c(C)nc3cc([C@H]4CC[C@H](C(F)(F)F)CC4)nn23)C1 [Example 22] | 6.00 to 7.00 | – | – | –
CCc1c(C)nc2cc([C@H]3CC[C@H](C(F)(F)F)CC3)nn2c1N1CCC[C@@](C)(C(=O)O)C1 [Example 27] | 8.00 to 9.00 | – | – | –
CCc1c(C)nc2cc([C@H]3CC[C@H](C(F)(F)F)CC3)nn2c1N1CCC[C@@](CC)(C(=O)O)C1 [Example 28] | 7.00 to 8.00 | – | – | –
Cc1nc2cc(C3CCC(F)(F)CC3)nn2c(N2CCC[C@](C)(C(=O)O)C2)c1C(C)C [Example 29] | 7.00 to 8.00 | – | – | –
CC[C@]1(C(=O)O)CCCN(c2c(C(C)C)c(C)nc3cc(C4CCC(F)(F)CC4)nn23)C1 [Example 31] | 7.00 to 8.00 | – | – | –
CCc1nc2cc([C@H]3CC[C@H](C(F)(F)F)CC3)nn2c(N2CCC[C@@](C)(C(=O)O)C2)c1CC [Example 33] | – | 63 | 34 | 172
C[C@@]1(C(=O)O)CCCN(c2c3c(nc4cc([C@H]5CC[C@H](C(F)(F)F)CC5)nn24)CCCC3)C1 [Example 34] | 8.00 to 9.00 | – | – | –
C[C@]1(C(=O)O)CCCN(c2c3c(nc4cc([C@H]5CC[C@H](C(F)(F)F)CC5)nn24)CCOC3)C1 [Example 36] | 6.00 to 7.00 | – | – | –
C[C@]1(C(=O)O)CCCN(c2c3c(nc4cc([C@H]5CC[C@H](C(F)(F)F)CC5)nn24)COCC3)C1 [Example 37] | 6.00 to 7.00 | – | – | –
Cc1nc2c(F)c(C3CCC(F)(F)CC3)nn2c(N2CCC[C@@](C)(C(=O)O)C2)c1C(C)C [Example 40] | 8.00 to 9.00 | – | – | –
C[C@@]1(C(=O)O)CCCN(c2c3c(nc4cc([C@H]5CC[C@H](C(F)(F)F)CC5)nn24)COCC3)C1 [Example 42] | 6.00 to 7.00 | – | – | –
